The values that follow come from PMC5447021, “TNF Lectin-Like Domain Restores Epithelial Sodium Channel Function in Frameshift Mutants Associated with Pseudohypoaldosteronism Type 1B” (Frontiers in Immunology, 2017).

For one assay, the target named is T1, αR448fsβγ-ENaC (Homo sapiens, UniProt P37088+P51168+P51170).
T1 construct: expressed in transfected cells; host or cells: HEK-293
The experiment in a line: Whole-cell patch clamp, αR448fs + WT βγ. Format: cell-based. Conditions: αR448fsβγ preincubated with 100 units PNGase F; 200 nM solnatide or 20 nM TNF; n = 3. The protocol:
Currents were recorded with the patch clamp method in the whole-cell mode. […] Chemicals for pipette and bathing solutions were supplied by Sigma-Aldrich (Vienna, Austria). Electrophysiological measurements were carried out with an Axopatch 200B patch clamp amplifier (Axon Instruments, CA, USA).
(In patch-clamp work, channel activity is measured electrically.)

Assay [1] deals with αF435fs (co-expressed with βγ-ENaC). The assay can be described thus: Whole-cell patch clamp, αF435fs + WT βγ. Format: cell-based, human. Conditions: read-out: EC50, solnatide, HEK-293, whole-cell, -100 mV, n = 7. As to the method:
(§1) Point mutations of α-, β-, γ- and δ-hENaC and PHA1B frameshift mutations of α-hENaC were prepared with the QuikChange Lightning Site-Directed Mutagenesis Kit (Agilent Technologies, CA, USA). Mutagenic primers were designed individually with the Primer Design Program provided on the producer’s website or for the frameshift mutations the same base changes as reported in patients (see Table 2) were performed. Primers were ordered from Sigma-Aldrich, Vienna, Austria.
(§2) HEK-293 cells were transfected 1 day after cell seeding using X-tremeGENE HP DNA transfection reagent (Roche Diagnostics, Mannheim, Germany) according to the manufacturer’s protocol. A set of WT or mutant αβγ- or δβγ-hENaC, or α-, β-, γ-, or δ-hENaC alone was used, and the ratio of DNA to transfection reagent was 1:3. The expression was highest 48–72 h after transfection.
(§3) Electrophysiological experiments were performed as described in detail by Shabbir et al. ([16]). […] Currents were recorded with the patch clamp method in the whole-cell mode. The chamber contained 1 ml of the bath solution of the following composition (in mM): 145 NaCl, 2.7 KCl, 1.8 CaCl2, 2 MgCl2, 5.5 glucose, and 10 HEPES, adjusted to pH 7.4 with 1 M NaOH solution. Micropipettes were pulled from thin-walled borosilicate glass capillaries (Harvard Apparatus, Holliston, MA, USA) with a DMZ Zeitz Puller to obtain electrode resistances ranging from 2 to 5 MΩ. […]

Assay [2] has as its system αR438fs (co-expressed with βγ-ENaC). The assay can be described thus: Whole-cell patch clamp, αR438fs + WT βγ. The following applies: read-out: EC50, solnatide, HEK-293, whole-cell, -100 mV, n = 7. Format: cell-based, human. As to the method:
as §1, §2, §3

In assay [3] the test system is αY447fs (co-expressed with βγ-ENaC). The assay can be described thus: Whole-cell patch clamp, αY447fs + WT βγ. Format: cell-based, human. The following applies: read-out: EC50, solnatide, HEK-293, whole-cell, -100 mV, n = 7. As to the method: as §1, §2, §3

Entries after “also recorded” stand apart in the source; their conditions may differ.

T1 sequence (P37088 with tags, fused parts or gaps): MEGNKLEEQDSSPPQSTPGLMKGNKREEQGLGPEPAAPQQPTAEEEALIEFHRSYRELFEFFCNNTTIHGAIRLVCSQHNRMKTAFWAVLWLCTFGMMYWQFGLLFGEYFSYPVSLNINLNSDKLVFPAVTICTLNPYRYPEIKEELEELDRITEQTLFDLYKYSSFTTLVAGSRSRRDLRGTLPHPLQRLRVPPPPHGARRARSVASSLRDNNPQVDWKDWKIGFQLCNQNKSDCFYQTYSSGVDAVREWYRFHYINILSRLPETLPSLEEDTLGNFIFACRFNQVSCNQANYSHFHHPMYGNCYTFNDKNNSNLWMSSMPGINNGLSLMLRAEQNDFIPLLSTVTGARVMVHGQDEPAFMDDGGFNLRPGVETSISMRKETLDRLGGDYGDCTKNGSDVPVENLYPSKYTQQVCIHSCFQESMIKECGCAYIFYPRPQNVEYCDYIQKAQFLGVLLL
T1 sequence (P51168 whole entry partner): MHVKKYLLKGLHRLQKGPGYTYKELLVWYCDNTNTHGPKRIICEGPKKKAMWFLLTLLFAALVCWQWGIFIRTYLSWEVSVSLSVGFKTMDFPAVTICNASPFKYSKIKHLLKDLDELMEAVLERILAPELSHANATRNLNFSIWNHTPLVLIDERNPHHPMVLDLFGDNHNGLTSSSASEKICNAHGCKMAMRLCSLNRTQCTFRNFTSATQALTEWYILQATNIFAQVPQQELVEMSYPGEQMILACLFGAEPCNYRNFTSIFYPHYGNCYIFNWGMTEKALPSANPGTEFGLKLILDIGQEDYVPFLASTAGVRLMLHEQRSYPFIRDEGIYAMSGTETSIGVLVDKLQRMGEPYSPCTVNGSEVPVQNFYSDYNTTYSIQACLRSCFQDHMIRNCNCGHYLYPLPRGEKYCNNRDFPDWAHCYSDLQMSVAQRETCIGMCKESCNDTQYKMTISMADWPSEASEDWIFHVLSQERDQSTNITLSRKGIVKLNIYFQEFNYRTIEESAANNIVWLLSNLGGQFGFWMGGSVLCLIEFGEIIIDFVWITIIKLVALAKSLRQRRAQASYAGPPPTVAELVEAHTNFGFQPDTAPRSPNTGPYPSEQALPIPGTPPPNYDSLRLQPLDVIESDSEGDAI
T1 sequence (P51170 whole entry partner): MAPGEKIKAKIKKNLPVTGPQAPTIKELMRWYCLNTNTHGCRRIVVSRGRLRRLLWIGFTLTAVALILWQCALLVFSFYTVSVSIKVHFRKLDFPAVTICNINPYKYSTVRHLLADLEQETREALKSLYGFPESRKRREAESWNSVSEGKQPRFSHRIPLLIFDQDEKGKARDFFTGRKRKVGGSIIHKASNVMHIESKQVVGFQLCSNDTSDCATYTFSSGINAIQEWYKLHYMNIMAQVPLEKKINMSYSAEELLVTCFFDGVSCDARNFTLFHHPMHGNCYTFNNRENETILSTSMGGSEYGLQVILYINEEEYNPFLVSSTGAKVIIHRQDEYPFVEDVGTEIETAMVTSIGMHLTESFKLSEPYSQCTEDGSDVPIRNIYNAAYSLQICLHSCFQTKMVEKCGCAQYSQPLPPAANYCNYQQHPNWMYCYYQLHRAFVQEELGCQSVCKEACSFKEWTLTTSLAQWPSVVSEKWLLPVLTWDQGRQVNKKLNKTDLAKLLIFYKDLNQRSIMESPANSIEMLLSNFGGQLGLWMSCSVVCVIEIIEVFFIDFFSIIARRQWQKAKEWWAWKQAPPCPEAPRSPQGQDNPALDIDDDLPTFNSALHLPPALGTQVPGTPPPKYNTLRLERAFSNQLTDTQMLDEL

As to `C[C@@H]1NC(=O)CNC(=O)[C@H](CCC(=O)O)NC(=O)[C@@H]2CCCN2C(=O)[C@H]([C@@H](C)O)NC(=O)[C@H](CCC(=O)O)NC(=O)[C@H](CCCNC(=N)N)NC(=O)[C@H](CCC(N)=O)NC(=O)CNC(=O)[C@@H](N)CSSC[C@@H](C(=O)O)NC(=O)[C@H](Cc2ccc(O)cc2)NC(=O)[C@H](Cc2c[nH]c3ccccc23)NC(=O)[C@@H]2CCCN2C(=O)[C@H](CCCCN)NC(=O)[C@H](C)NC(=O)[C@H](CCC(=O)O)NC1=O` [solnatide, L-cysteine, L-cysteinylglycyl-L-glutaminyl-L-arginyl-L-α-glutamyl-L-threonyl-L-prolyl-L-α-glutamylglycyl-L-alanyl-L-α-glutamyl-L-alanyl-L-lysyl-L-prolyl-L-tryptophyl-L-tyrosyl-, cyclic (1→17)-disulfide], the “Current activation after PNGase F” value at αR448fsβγ-ENaC is “no current could be induced; also recorded: neither TNF nor solnatide potentiated amiloride-sensitive current in αR448fsβγ-ENaC following PNGase F treatment”. For the same compound, the EC50 – broadly, the concentration at which the effect is half-maximal – was found to be 64.6 ± 8.7 nM in assay [1], 56.6 ± 8 nM in assay [2] and 57.2 ± 4.8 nM in assay [3].
